Two molecules from patent US6413968B1, “Treatment of myasthenia gravis by cyclic nucleotide phosphodiesterase inhibition” (priority 2000, dated 2002) can be followed below.

This test has as its system diplopia and ptosis. The experiment in a line: Case report: patient with vertical diplopia and right ptosis treated orally. In kind it is in vivo, human. An excerpt:
A person presented with a three-week history of vertical diplopia that was incomitant and right ptosis.

The structures appear in SMILES notation.

`CN(C)C(=O)Oc1ccc[n+](C)c1` [Mestinon]: the “relief of diplopia and ptosis” value (patient, three-week history of vertical diplopia and right ptosis, 60 mg three times daily) is listed as “failed to relieve the diplopia or the ptosis”.

Take `CCCc1nn(C)c2c(=O)[nH]c(-c3cc(S(=O)(=O)N4CCN(C)CC4)ccc3OCC)nc12` [Sildenafil]: under “same patient, after Mestinon failure, 25 mg tab four times daily”, the “resolution of diplopia and ptosis” value was “immediate resolution of dipolopia and ptosis”. The “time to resolution of diplopia and ptosis” value (same patient, 25 mg tab four times daily) was at most 24 h.
